# Tests used:
# Staphylococcus aureus [1] = experiment: Antibacterial activity against Staphylococcus aureus assessed as inhibition of bacterial growth; type: functional
# Pseudomonas aeruginosa [2] = experiment: Antibacterial activity against Pseudomonas aeruginosa assessed as inhibition of bacterial growth; type: functional
# Streptococcus mutans = experiment: Antibacterial activity against wild type planktonic Streptococcus mutans UA159 assessed as inhibition of bacterial growth incubated for 20 to 24 hrs; type: functional; details: time 20-24 hrs
# Staphylococcus aureus [3] = experiment: Antimicrobial activity against methicillin resistant Staphylococcus aureus assessed as inhibition of bacterial growth by CLSI protocol based microdilution method; type: functional
# Staphylococcus aureus [4] = experiment: Antimicrobial activity against methicillin resistant Staphylococcus aureus MW2 BAA-1707 persisters assessed as inhibition of bacterial colonies; type: functional
# [5] = Hemolytic activity in human erythrocytes assessed as hemolysis incubated for 1 hrs; type: toxicity, cell-based, Erythrocyte
# Staphylococcus aureus [6] = experiment: Antibacterial activity against Staphylococcus aureus ATCC 9144 assessed as inhibition of bacterial growth incubated for 24 hrs; type: functional
# Staphylococcus aureus [7] = experiment: Antimicrobial activity against vancomycin resistant Staphylococcus aureus assessed as inhibition of bacterial growth by CLSI protocol based microdilution method; type: functional
# Enterococcus faecium = experiment: Antibacterial activity against Enterococcus faecium assessed as inhibition of bacterial growth by microplate reader analysis; type: functional
# Staphylococcus aureus [8] = experiment: Antibacterial activity against Staphylococcus aureus assessed as inhibition of bacterial growth by microplate reader analysis; type: functional
# Klebsiella pneumoniae = experiment: Antibacterial activity against Klebsiella pneumoniae assessed as inhibition of bacterial growth by microplate reader analysis; type: functional
# Acinetobacter baumannii = experiment: Antibacterial activity against Acinetobacter baumannii assessed as inhibition of bacterial growth by microplate reader analysis; type: functional
# Pseudomonas aeruginosa [9] = experiment: Antibacterial activity against Pseudomonas aeruginosa assessed as inhibition of bacterial growth by microplate reader analysis; type: functional
# Enterobacter sp. = experiment: Antibacterial activity against Enterobacter sp. assessed as inhibition of bacterial growth by microplate reader analysis; type: functional
# Pseudomonas aeruginosa [10] = experiment: Antibacterial activity against Pseudomonas aeruginosa persistent cells assessed as fold reduction in bacterial cell in the presence of ofloxacin relative to ofloxacin alone; type: functional
# Staphylococcus aureus [11] = experiment: Antibacterial activity against methicillin resistant Staphylococcus aureus ATCC 33591 assessed as inhibition of bacterial growth incubated for 24 hrs by broth microdilution method; type: functional
# Staphylococcus aureus [12] = experiment: Antibacterial activity against methicillin resistant Staphylococcus aureus R3889 assessed as inhibition of bacterial growth incubated for 24 hrs by broth microdilution method; type: functional
# Staphylococcus aureus [13] = experiment: Antibacterial activity against methicillin resistant Staphylococcus aureus R3890 assessed as inhibition of bacterial growth incubated for 24 hrs by broth microdilution method; type: functional
# Pseudomonas aeruginosa [14] = experiment: Antibacterial activity against Pseudomonas aeruginosa persistent cells assessed as fold reduction in bacterial cell at 68 ug/ml in the presence of ofloxacin relative to ofloxacin alone; type: functional; details: dose 68 µg/ml
# Staphylococcus aureus [15] = experiment: Antibacterial activity against methicillin resistant Staphylococcus aureus MW2 assessed as inhibition of bacterial growth measured after 2 hrs; type: functional
# [16] = Cytotoxicity against human hepatocytes assessed as reduction in cell growth by WST-1 assay; type: toxicity, cell-based, Hepatocyte; details: read-out: LC50 (the source's name)
smiles,measurement,setting,value
CCC(C)NCC(O)Cn1c2ccc(Cl)cc2c2cc(Cl)ccc21 (configuration not stated),MIC,Staphylococcus aureus [1],4.63 µg/mL
same,MIC,Pseudomonas aeruginosa [2],4.63 µg/mL
C=CCc1ccc(O)c(-c2ccc(O)c(CC=C)c2)c1 [HONOKIOL],MIC,Streptococcus mutans,66.6 µg/mL
O=C(O)c1c(Sc2ccccc2)c2cc(Cl)ccc2n1Cc1ccc(Cl)cc1,MIC,Staphylococcus aureus [3],4 µg/mL
same,Activity,Staphylococcus aureus [4],64 µg/mL
same,HC50 at 1 h,[5],47 µg/mL
Oc1c(Cl)cc(Cl)cc1Sc1cc(Cl)cc(Cl)c1O [BITHIONOL],MIC50,Staphylococcus aureus [6],8 µM
same,MIC,Staphylococcus aureus [7],0.5 µg/mL
Nc1nc(N)c2c(ccc3c2ccn3Cc2ccc(-c3ccccc3)cc2)n1,MIC,Enterococcus faecium,0.02 µg/mL
same,MIC,Staphylococcus aureus [8],0.02 µg/mL
same,MIC,Klebsiella pneumoniae,0.02 µg/mL
same,MIC,Acinetobacter baumannii,0.02 µg/mL
same,MIC,Pseudomonas aeruginosa [9],0.02 µg/mL
same,MIC,Enterobacter sp.,0.02 µg/mL
O[C@H](CNCc1ccccc1)COc1ccc(Cl)cc1Cl,fold change (FC),Pseudomonas aeruginosa [10],>2000
CC(C)c1ccc(Cn2ccc3c4c(N)nc(NC5CC5)nc4ccc32)cc1,MIC,Enterococcus faecium,2 µg/mL
same,MIC,Staphylococcus aureus [8],2 µg/mL
same,MIC,Klebsiella pneumoniae,2 µg/mL
same,MIC,Acinetobacter baumannii,2 µg/mL
same,MIC,Pseudomonas aeruginosa [9],2 µg/mL
same,MIC,Enterobacter sp.,2 µg/mL
CCCCCCCCCCN(Cc1cccc2ccccc12)C(=O)[C@@H](N)CCCCN,MIC,Staphylococcus aureus [11],4.1 µg/mL
same,MIC,Staphylococcus aureus [12],4.1 µg/mL
same,MIC,Staphylococcus aureus [13],4.1 µg/mL
O=C(O)c1c(Oc2ccc(I)cc2)c2cc(Cl)ccc2n1Cc1ccc(Cl)cc1,MIC,Staphylococcus aureus [3],1 µg/mL
same,Activity,Staphylococcus aureus [4],16 µg/mL
same,HC50 at 1 h,[5],> 64 µg/mL
CC(C)(C)c1ccc(CCc2ccc(C(C)(C)C)c(O)c2)cc1O,MIC,Streptococcus mutans,0.65 µg/mL
O[C@H](CNCCc1ccc(Cl)cc1Cl)COc1ccccc1,fold change (FC),Pseudomonas aeruginosa [14],7200
O=C(O)c1ccc2cc(-c3ccc(O)c(C45CC6CC(CC(C6)C4)C5)c3)ccc2c1 [O-DEMETHYLATED ADAPALENE],HC50 at 1 h,[5],32 µg/mL
same,MIC,Staphylococcus aureus [15],1 µg/mL
same,CC50,[16],20 µg/mL

# — ChEMBL document CHEMBL5241050, “Using membrane perturbing small molecules to target chronic persistent infections” (RSC Med Chem, 2021)
